From patent US6288073A, “Acronycine derivatives, preparation method and pharmaceutical compositions” (Adir et Compagnie, priority 1997, dated 2001)

Legend:
[1] = test system: Human Colon Carcinoma HT29; assay: Anti-tumour activity on human colon carcinoma HT29 grafted onto nude mice; format: in vivo, nude mice (human HT29 xenograft)
Source text: Line HT29 was supplied by the ATCC (American Type Culture Collection, Rockville, USA). The tumour cells were inoculated into female nude Swiss mice (10^7 cells per animal) by the subcutaneous route. The tumours were then removed and cut into fragments, which were grafted onto nude mice by the subcutaneous route. Once the tumour volume had reached from 50 to 100 mm^3, the mice were distributed into experimental groups containing 8 animals (control group) or 6 animals (treated groups) (day 0). The products were administered by the i.v. route once per week for 3 weeks. The tumours were measured twice per week and the tumour volumes were calculated according to the formula: volume (mm^3)=length (mm)×width^2 […]/2 [formula]
with V0 and Vt being the initial volume and the volume at measurement time t, respectively.

[2] = test system: Murine leukaemia L1210; assay: Cytotoxicity for L1210 cells in culture (Microculture Tetrazolium Assay); format: cell-based; settings: Mus musculus, exposure 48 hours (4 periods of cell doubling), viable cells by Microculture Tetrazolium Assay
Description: Murine leukaemia L1210 was used in vitro. The cells are cultured in RPMI 1640 complete culture medium containing 10% foetal calf serum, 2 mM giutamine, 50 units/ml of penicillin, 50 μg/ml of streptomycin and 10 mM Hepes, pH: 7.4. The cells are distributed on microplates and exposed to the cytotoxic compounds for 4 periods of cell doubling, i.e. 48 hours. The number of viable cells is then quantified by means of a colorimetric assay, the Microculture Tetrazolium Assay (J. Carmichael et al., Cancer Res., 47, 936-942, (1987)). The results are expressed as IC50, the concentration of cytotoxic agent which inhibits the proliferation of the treated cells by 50%.

[3] = test system: Line P 388 (murine leukaemia); assay: Anti-tumour activity on line P 388 in vivo; set-up: species or system mice; settings: for % T/C: P 388 inoculated i.p. into female B6D2F1 mice, product i.p. on day 1 at the optimum dose; for Anti-tumour activity on line P 388 (in words): P 388 model in B6D2F1 mice, i.p., d1
Description: Line P 388 (murine leukaemia) was supplied by the National Cancer Institute (Frederick, USA). The tumour cells (10^6 cells) were inoculated on day 0 into the peritoneal cavity of female B6D2F1 mice (Iffa Credo, France). Six mice weighing from 18 to 20 g were used for each experimental group. The products were administered by the intraperitoneal route on day 1.
The anti-tumour activity is expressed as % TIC: [formula]

SMILES	Anti-tumour activity on line HT29 (in words) ([1]; HT29 model in nude mice, i.v.)	% T/C on day 32 ([1]; HT29 s.c. grafts in nude Swiss mice, i.v. d 0, 7, 14 at optimum dose, tumour volume) [%]	inhibition of growth of the HT29 tumour ([1]; on day 32, HT29 s.c. grafts in nude mice, i.v. once per week for 3 weeks) [%]	IC50 [2] [µM]	% T/C [3] [%]	Anti-tumour activity on line P 388 (in words) [3]
COc1cc2c(c3c1c(=O)c1cc4ccccc4cc1n3C)[C@@H](OC(C)=O)[C@@H](OC(C)=O)C(C)(C)O2 (relative stereo) [Example 5, (±)-cis-1,2-Diacetoxy-4-methoxy-3,3,14-trimethyl-2,3,7,14-tetrahydro-1H-benzo[b]pyrano[3,2-h]acridin-7-one]	very active	17	83	–	–	–
COc1cc2c(c3c1c(=O)c1ccccc1n3C)C=CC(C)(C)O2 [Acronycine]	–	–	–	27	125	only marginally active
COc1cc2c(c3c1c(=O)c1cc4ccccc4cc1n3C)[C@H]1OC(=O)O[C@H]1C(C)(C)O2 (relative stereo) [Example 7, cis-7-Methoxy-4,4,15-trimethyl-3a,8,15,15c-tetrahydro-4H-benzo[b][1,3]dioxolo[4',5':4,5]pyrano[3,2-h]acridine-2,8-dione]	–	–	–	0.023	327	very active
